Results published in article PMC4601051, “Discovery of Indoline-2-carboxamide Derivatives as a New Class of Brain-Penetrant Inhibitors of Trypanosoma brucei” (Journal of Medicinal Chemistry, 2015).
Values joined by “and” are separate entries in the source; they are usually repeats but may differ in a detail not shown here. Equal values may be shown once. Read-outs that look alike come from different tables or passages of the source.

Assays:
[1] = tested on: bloodstream form T. brucei brucei; assay: T. b. brucei whole cell parasite (trypanosome growth) assay; assay type: cell-based, Trypanosoma brucei brucei
Description: This was conducted as previously described.[27] Cell culture plates were stamped with 1 μL of an appropriate stock concentration of test compound, followed by addition of 200 μL of trypanosome culture (HMI9-T, 10% FCS) to each well at a density of 2000 cells per well (except column 12 receiving media only). […] Potency was carried out using 10-point dose–response curves.

[2] = Microsomal intrinsic clearance (Clint), mouse; assay type: in vitro ADME; details: mouse liver microsomes, 0.5 μM compound
Description: (§1) Each test compound (0.5 μM) was incubated with pooled female CDI mouse liver microsomes, pooled male Sprague–Dawley rat microsomes, or pooled mixed gender human liver microsomes (Tebu-Bio, UK; 0.5 mg/mL 50 mM potassium phosphate buffer, pH 7.4) and the reaction started with addition of excess NADPH (8 mg/mL, 50 mM potassium phosphate buffer, pH 7.4). Immediately, at time zero, then at 3, 6, 9, 15, and 30 min, an aliquot (50 μL) of the incubation mixture was removed and mixed with acetonitrile (100 μL) to stop the reaction. Internal standard was added to all samples, and the samples were centrifuged at 1825g for 10 min to sediment precipitated protein. The plates were then sealed prior to UPLC/MS/MS analysis using a Quattro Premier XE (Waters Corporation, USA).
(§2) XLfit (IDBS, UK) was used to calculate the exponential decay and consequently the rate constant (k) from the ratio of peak area of test compound to internal standard at each time point.

[3] = Microsomal intrinsic clearance (Clint), rat; assay type: in vitro ADME; details: rat liver microsomes, 0.5 μM compound
Description: as §1, §2

[4] = Microsomal intrinsic clearance (Clint), human; assay type: in vitro ADME; details: human liver microsomes, 0.5 μM compound
Description: as §1, §2

[5] = Aqueous kinetic solubility by laser nephelometry; assay type: physicochemical; details: aqueous medium, Table 7
Description: (§3) The software package StarDrop by Optibrium was used to calculate physicochemical parameters including log P, molecular weight, and polar surface area (PSA). The aqueous kinetic solubility of the compounds was measured using laser nephelometry as previously described.[40] The plasma protein binding of the compounds was determined by the equilibrium dialysis method.[12]

[6] = Plasma protein binding by equilibrium dialysis, mouse; assay type: in vitro ADME; details: read-out: plasma protein binding, Fu (fraction unbound)
Description: as §3

[7] = Brain tissue binding by equilibrium dialysis; assay type: in vitro ADME; details: Sprague-Dawley, brain homogenate; rat (male SD rat); read-out: brain tissue binding (rat), Fu
Description: In brief, a 96-well equilibrium dialysis apparatus was used to determine the free fraction in the brain for the test compound (HT Dialysis LLC, Gales Ferry, CT). Membranes (12–14 kDa A cutoff) were conditioned in deionized water for 60 min, followed by conditioning in 80:20 deionized water:ethanol for 20 min and then rinsed in artificial cerebrospinal fluid (CSF) before use. Mouse brain was removed from the freezer and allowed to thaw on the day of experiment. […] Diluted brain homogenate was spiked with the test compound (10 ug/g), and 150 μL aliquots (n = 6 replicate determinations) loaded into the 96-well equilibrium dialysis plate. Dialysis vs artificial CSF (150 μL) was carried out for 5 h in a temperature controlled incubator at ca. 37 °C (Stuart scientific Ltd., UK) using an orbital microplate shaker at 125 rpm (Stuart scientific Ltd., UK). […] All samples were analyzed by means of UPLC/MS/MS on a Quattro Premier XE mass spectrometer (Waters Corporation, USA). The unbound fraction was determined as the ratio of the peak area in artificial CSF to that in brain, with correction for dilution factor according to eq 1.[42] […] 1 where D = dilution factor in brain homogenate and Fu,apparent is the measured free fraction of diluted brain homogenate.

[8] = In vivo mouse pharmacokinetics; details: for Cmax / Tmax / half-life / AUC(0-t) at 8 h / AUC(0-t): female, mouse, in vivo, 10 mg/kg, NMRI mice; for AUC(0-t) at 8 h: read-out: AUC0–8; for AUC(0-t): read-out: AUC0–8 (converted)
Description: Each compound was dosed as a bolus solution intraperitoneally at 10 mg free base/kg (dose volume, 10 mL/kg; dose vehicles used, 10% DMSO; 40% PEG400; 50% Milli-Q water or 5% DMSO; 40% PEG400; 55% saline) to female HRN (1 only) or NMRI mice (n = 3) or dosed orally by gavage as a solution at 10 mg free base/kg (dose volume, 10 mL/kg; dose vehicle, 10% DMSO; 40% PEG400; 50% Milli-Q water) to female NMRI mice (n = 3). Female NMRI mice were chosen, as these represent the sex and strain used for the stage 1 and stage 2 HAT efficacy models. Blood samples were taken from each mouse at 5 (IP only), 15, and 30 min, 1, 2, 4, 6, and 8 h post dose, mixed with two volumes of distilled water, and stored frozen until UPLC/MS/MS analysis. Pharmacokinetic parameters were derived from noncompartmental analysis of the blood concentration time curve using PK solutions software v 2.0 (Summit Research Services, USA).

[9] = Mouse brain penetration (brain:blood ratio); details: in vivo, dosed intravenously at 0.5 or 1 mg/kg, levels measured after 5 min, female NMRI mice, read-out: B:B (brain to blood ratio)
Description: Each compound was dosed as a bolus solution intravenously at 0.5 or 1 mg free base/kg (dose volume, 5 mL/kg; dose vehicle, 10% DMSO; 40% PEG400; 50% Milli-Q water) to female NMRI mice (n = 6). At 5 and 30 min following intravenous bolus injection of test compound, mice (n = 3/time point) were placed under terminal anesthesia with isofluorane. A blood sample was taken by cardiac puncture and mixed with two volumes of distilled water, the mice decapitated, and the brain removed. Diluted blood and brains were stored frozen until preparation and analysis by UPLC/MS/MS. For each mouse at each time point, the concentration in brain (ng/g) was divided by the concentration in blood (ng/mL) to give a brain:blood ratio. The mean value obtained was quoted.

in vitro = details: human, MRC-5 fibroblasts
Description: Proliferation assays using bloodstream form T. brucei brucei and human MRC-5 fibroblasts were conducted using a modification of the cell viability assay as previously reported.[27],[39]
MRC-5 cells (2000 cells per well) were seeded in 200 μL of DMEM, 10% FCS, and allowed to adhere overnight. One microliter of test compound was added to each well on the day of assay initiation.
The final DMSO level was 0.5% in all cases.

In the case of CNC(=O)C1Cc2cc(F)ccc2N1C(=O)COc1ccc(F)cc1 (stereo not drawn) [Compound 55, 5-fluoro-1-(2-(4-fluorophenoxy)acetyl)-N-methylindoline-2-carboxamide], the Hill slope ([1]; T. brucei EC50 curve) is reported as 4.4, the EC50 ([1]; Trypanosoma brucei, mean of two or more determinations, 69 h + 4 h resazurin, read-out: T. b. brucei EC50) is reported as 80 nM and the “mouse microsomal intrinsic clearance” value [2] is reported as 1.3 mL min^–1 g^–1. The “microsomal intrinsic clearance, rat” value [3] was 2.1 mL min^–1 g^–1, the “microsomal intrinsic clearance, human” value [4] was 0.5 mL min^–1 g^–1 and < 0.5 mL min^–1 g^–1 and the solubility [5] was over 100 µg/mL. For the same compound, the fraction unbound [6] was 0.33, the fraction unbound at 5 h, 10 ug/g [7] was 0.29 and the “higher AUC compared to 1” value ([8]; IP, female NMRI mice) was 1.5–6.5 fold. The Cmax ([8]; IP) was 2900 ng/mL and 8.4 µM, the Tmax ([8]; IP) was 1 h and the half-life ([8]; IP) was 1.2 h. For the same compound, the AUC(0-t) at 8 h ([8]; IP) was 34 µM·h, the AUC(0-t) ([8]; IP) was 11800 ng·h/mL and the Cmax ([8]; PO) was 1500 ng/mL and 4.3 µM. The Tmax ([8]; PO) was 0.5 h, the half-life ([8]; PO) was 2 h and the AUC(0-t) at 8 h ([8]; PO) was 10 µM·h. For the same compound, the AUC(0-t) ([8]; PO) was 3500 ng·h/mL, the Kp at 5 min [9] was 1.4 and the EC50 at 69 h (in vitro) was over 50000 nM.
